# In publication PMC11372264, “^61Cu-PSMA–Targeted PET for Prostate Cancer: From Radiotracer Development to First-in-Human Imaging” (Journal of Nuclear Medicine, 2024):
# “And” between values parts separate entries of the source, which are not always exact repeats. Identical values can stand only once.
# Key:
# [1] = Lipophilicity: distribution coefficient in 1:1 1-octanol/phosphate-buffered saline at pH 7.4; format: physicochemical
# Experimental: The lipophilicity of [^61Cu]Cu-DOTAGA-PSMA-I&T and [^61Cu]Cu-NODAGA-PSMA-I&T was assessed by determining the distribution coefficient in a 1:1 mixture of 1-octanol–to–phosphate-buffered saline at pH 7.4, in comparison with all reference radiotracers. Inhibitory concentration of 50% (IC50) was assessed by competition binding on lymph node carcinoma of the prostate (LNCaP) using ((S)-1-carboxy-5-(4-(-^125I-iodo-benzamido)pentyl)carbamoyl)-L-glutamic acid as the reference radioligand. Cellular uptake and distribution were assessed in LNCaP cells at 5, 15, 30, 60, and 120 min after exposure to the radioligand at 37°C, either alone or in the presence of 10 µM 2-(phosphonomethyl)pentanedioic acid to distinguish between specific and nonspecific uptake.
# [2] = Human dosimetry estimates (OLINDA/EXM version 1.0) from mouse biodistribution; conditions: standard adult man phantom; mouse kinetics assumed same as human
# Experimental: Additional biodistribution data were generated in healthy BALB/c mice using [^64Cu]Cu-NODAGA-PSMA-I&T at 1, 4, 12, and 24 h after injection and combined with the data of [^61Cu]Cu-NODAGA-PSMA-I&T at 1 and 4 h after injection. Non–decay-corrected biodistribution data for ^61Cu (t1/2, 3.33 h) were used to generate time–activity curves for [^61Cu]Cu-NODAGA-PSMA-I&T. OLINDA/EXM version 1.0 (Vanderbilt University) was used for the dosimetry estimates, as described in the supplemental materials.
# [3] = Stability of radiotracer at room temperature (radiochemical purity over time); format: physicochemical; conditions: good manufacturing practice grade for human use, 20 MBq/nmol
# Experimental: [^61Cu]Cu-DOTAGA-PSMA-I&T and [^61Cu]Cu-NODAGA-PSMA-I&T were synthesized with radiolabeling yield of more than 98% and radiochemical purity of more than 97% (radio–high-performance liquid chromatography analysis) at an apparent molar activity of 24 MBq/nmol. Thus, no purification was required after labeling. Although [^61Cu]Cu-DOTAGA-PSMA-I&T needed elevated temperature (95°C) and 15 min of reaction time, [^61Cu]Cu-NODAGA-PSMA-I&T was synthesized at room temperature within 5 min. After 4 h at room temperature, the radiochemical purity of [^61Cu]Cu-DOTAGA-PSMA-I&T dropped to approximately 90%, whereas it remained stable (∼97%) for [^61Cu]Cu-NODAGA-PSMA-I&T. All analytic data and quality control results are provided in Supplemental Figures 1 and 2 and in Supplemental Tables 1 and 2.
# With inexpensive ^natNi as the starting material, highly pure ^61Cu could be produced with radionuclidic purity exceeding 99.99% at 12 h after synthesis (details on the production will be published elsewhere). The preparation of [^61Cu]Cu-NODAGA-PSMA-I&T was performed in widely used buffers at room temperature within 5 min. […] High labeling yields and suitable molar activities for clinical use eliminate the need for any purification step after labeling. […]
smiles,measurement,setting,value
"O=C([O-])CN1CCN(CC(=O)[O-])CCN(C(CCC(=O)N[C@H](Cc2ccc(O)c(I)c2)C(=O)N[C@H](Cc2ccccc2)C(=O)N[C@H](CCCCNC(=O)CCCCCCC(=O)NCCCC[C@H](NC(=O)N[C@@H](CCC(=O)O)C(=O)O)C(=O)O)C(=O)O)C(=O)O)CC1.[61Cu+2] (stereo partly drawn) [[^61Cu]Cu-NODAGA-PSMA-I&T, NODAGA-(l-y)fk(sub-KuE)]",logDpH7.4,[1],−2.95 ± 0.08
same,Effective dose,[2],0.0142 mSv/MBq and 1.42E−02 mSv/MBq
same,"Total absorbed dose, men: Adrenals",[2],8.39E−02 mGy/MBq
same,"Total absorbed dose, men: Brain",[2],6.18E−05 mGy/MBq
same,"Total absorbed dose, men: Gallbladder wall",[2],2.30E−02 mGy/MBq
same,"Total absorbed dose, men: Heart wall",[2],6.94E−03 mGy/MBq
same,"Total absorbed dose, men: Kidneys",[2],1.74E+00 mGy/MBq
same,"Total absorbed dose, men: LLI wall",[2],4.64E−03 mGy/MBq
same,"Total absorbed dose, men: Liver",[2],2.51E−02 mGy/MBq
same,"Total absorbed dose, men: Lungs",[2],6.11E−03 mGy/MBq
same,"Total absorbed dose, men: Muscle",[2],6.00E−03 mGy/MBq
same,"Total absorbed dose, men: Osteogenic cells",[2],5.31E−03 mGy/MBq
same,"Total absorbed dose, men: Pancreas",[2],4.83E−02 mGy/MBq
same,"Total absorbed dose, men: Red marrow",[2],1.11E−02 mGy/MBq
same,"Total absorbed dose, men: Skin",[2],2.90E−03 mGy/MBq
same,"Total absorbed dose, men: Small intestine",[2],3.79E−02 mGy/MBq
same,"Total absorbed dose, men: Spleen",[2],7.37E−02 mGy/MBq
same,"Total absorbed dose, men: Stomach wall",[2],1.71E−02 mGy/MBq
same,"Total absorbed dose, men: Testes",[2],5.39E−04 mGy/MBq
same,"Total absorbed dose, men: Thymus",[2],1.67E−03 mGy/MBq
same,"Total absorbed dose, men: Thyroid",[2],4.99E−04 mGy/MBq
same,"Total absorbed dose, men: Total body",[2],1.38E−02 mGy/MBq
same,"Total absorbed dose, men: ULI wall",[2],1.43E−02 mGy/MBq
same,"Total absorbed dose, men: Urinary bladder wall",[2],2.06E−03 mGy/MBq
same,Time stable at room temperature,[3],up to 9 h
